Data: patent EP0349354A1, “Peptides PF10 to PF19 from a retro virus HIV, method for the synthesis of these peptides and their use, particularly in diagnostics” (INSTITUT PASTEUR, priority 1988, dated 1990)

Test system: anticorps anti-nef
Assay: ELISA for detection of anti-nef antibodies on coated peptides or nef
Format: binding, humain
Details: for nombre de sérums anti-nef positifs ayant réagi: out of 31 anti-nef positive sera; for intensité de l'immunoréactivité (OD), Serum 1: Serum 1, anti-nef positive; for intensité de l'immunoréactivité (OD), Serum 1 / intensité de l'immunoréactivité (OD), Serum 2 / intensité de l'immunoréactivité (OD), Serum 3 / intensité de l'immunoréactivité (OD), Serum 4 / intensité de l'immunoréactivité (OD), Serum 5 / intensité de l'immunoréactivité (OD), Serum 6 / intensité de l'immunoréactivité (OD), Serum 7 / intensité de l'immunoréactivité (OD), Serum 8 / intensité de l'immunoréactivité (OD), Serum 9 / intensité de l'immunoréactivité (OD), Serum 10 / intensité de l'immunoréactivité (OD), Serum 11 / intensité de l'immunoréactivité (OD), Serum 12 / intensité de l'immunoréactivité (OD), Serum 13 / intensité de l'immunoréactivité (OD), Serum 14 / intensité de l'immunoréactivité (OD), Serum 15 / intensité de l'immunoréactivité (OD), Serum 16 / intensité de l'immunoréactivité (OD), Serum 17 / intensité de l'immunoréactivité (OD), Serum 18 / intensité de l'immunoréactivité (OD), Serum 19 / intensité de l'immunoréactivité (OD), Serum 20 / intensité de l'immunoréactivité (OD), Serum 21 / intensité de l'immunoréactivité (OD), Serum 22 / intensité de l'immunoréactivité (OD), Serum 23 / intensité de l'immunoréactivité (OD), Serum 24 / intensité de l'immunoréactivité (OD), Serum 25 / intensité de l'immunoréactivité (OD), Serum 26 / intensité de l'immunoréactivité (OD), Serum 27 / intensité de l'immunoréactivité (OD), Serum 28 / intensité de l'immunoréactivité (OD), Serum 29 / intensité de l'immunoréactivité (OD), Serum 30 / intensité de l'immunoréactivité (OD), Serum 31 / intensité de l'immunoréactivité (OD), Serum 32 / intensité de l'immunoréactivité (OD), Serum 33: 500 ng coated per well; for intensité de l'immunoréactivité (OD), Serum 2: Serum 2, anti-nef positive; for intensité de l'immunoréactivité (OD), Serum 3: Serum 3, anti-nef positive; for intensité de l'immunoréactivité (OD), Serum 4: Serum 4, anti-nef positive; for intensité de l'immunoréactivité (OD), Serum 5: Serum 5, anti-nef positive; for intensité de l'immunoréactivité (OD), Serum 6: Serum 6, anti-nef positive; for intensité de l'immunoréactivité (OD), Serum 7: Serum 7, anti-nef positive; for intensité de l'immunoréactivité (OD), Serum 8: Serum 8, anti-nef positive; for intensité de l'immunoréactivité (OD), Serum 9: Serum 9, anti-nef positive; for intensité de l'immunoréactivité (OD), Serum 10: Serum 10, anti-nef positive; for intensité de l'immunoréactivité (OD), Serum 11: Serum 11, anti-nef positive; for intensité de l'immunoréactivité (OD), Serum 12: Serum 12, anti-nef positive; for intensité de l'immunoréactivité (OD), Serum 13: Serum 13, anti-nef positive; for intensité de l'immunoréactivité (OD), Serum 14: Serum 14, anti-nef positive; for intensité de l'immunoréactivité (OD), Serum 15: Serum 15, anti-nef positive; for intensité de l'immunoréactivité (OD), Serum 16: Serum 16, anti-nef positive; for intensité de l'immunoréactivité (OD), Serum 17: Serum 17, anti-nef positive; for intensité de l'immunoréactivité (OD), Serum 18: Serum 18, anti-nef positive; for intensité de l'immunoréactivité (OD), Serum 19: Serum 19, anti-nef positive; for intensité de l'immunoréactivité (OD), Serum 20: Serum 20, anti-nef positive; for intensité de l'immunoréactivité (OD), Serum 21: Serum 21, anti-nef positive; for intensité de l'immunoréactivité (OD), Serum 22: Serum 22, anti-nef positive; for intensité de l'immunoréactivité (OD), Serum 23: Serum 23, anti-nef positive; for intensité de l'immunoréactivité (OD), Serum 24: Serum 24, anti-nef positive; for intensité de l'immunoréactivité (OD), Serum 25: Serum 25, anti-nef positive; for intensité de l'immunoréactivité (OD), Serum 26: Serum 26, anti-nef positive; for intensité de l'immunoréactivité (OD), Serum 27: Serum 27, anti-nef positive; for intensité de l'immunoréactivité (OD), Serum 28: Serum 28, anti-nef positive; for intensité de l'immunoréactivité (OD), Serum 29: Serum 29, anti-nef positive; for intensité de l'immunoréactivité (OD), Serum 30: Serum 30, anti-nef positive; for intensité de l'immunoréactivité (OD), Serum 31: Serum 31, anti-nef positive; for intensité de l'immunoréactivité (OD), Serum 32: Serum 32, anti-nef negative control serum; for intensité de l'immunoréactivité (OD), Serum 33: Serum 33, anti-nef negative control serum
Protocol: Des plaques de microtitration à 96 puits ont été recouvertes une nuit avec 500 ng de protéine nef bactérienne, à 37°C ou avec 500 ng de peptides synthétiques par puits dans 50µl de PBS à pH 7,4. Après saturation avec 400 µl de PBS pH 7,4, contenant 5% de caséine, durant 1 heure à 37°C et lavage avec PBS à pH 7,4, 0,5% de BSA, 0,01% tween, 50 µl de sérums à différentes dilutions ont été ajoutés pendant 2 heures à 37°C. Après le rinçage, 50µl de complexes d'IgG de souris anti-humaine-(H + L)-peroxydase 1:1000 ont été incubés pendant 1 heure à 37°C. Après un nouveau rinçage, 100µl de OPD ont été ajoutés pendant 30mn à température ambiante dans l'obscurité. La réaction de l'enzyme a été arrêtée par addition de 50µl d'acide sulfurique 4N et la densité optique des plaques a été lue à 492 nm/620 nm. Les plaques recouvertes avec la caséine ont été utilisées comme contrôle négatif.
En vue d'étudier la possibilité d'utiliser des peptides synthétiques en tant qu'antigènes pour la détection d'anticorps anti-nef chez des patients infectés par HIV, 8 peptides synthétiques couvrant la totalité de la séquence de la protéine nef de HIV-1 (figure 4) ont été utilisés dans un test ELISA avec 31 sérums anti-nef positifs et 2 sérums anti-nef négatifs utilisés comme contrôle. Les recombinants nef ont été utilisés comme contrôle positif dans les tests ELISA et la caséine a été utilisée comme contrôle négatif. Les résultats de ces expériences sont donnés dans le tableau 4 qui illustre l'essai suivant: Essai ELISA sur 31 sérums anti-nef-positifs et 2 sérums anti-nef- négatifs, soit pré-recouverts avec des peptides synthétiques (PF 11 à PF 18), soit en utilisant nef, la caséine ou un mélange de peptides PF 12 et PF 17. Les sérums ont été sélectionnés au hasard parmi des sérums anti-nef positifs et anti-nefs négatifs testés par la méthode RIA en utilisant ¹²⁵I nef. L'intensité de l'immunoradioactivité est notée "-" pour une densité optique (OD) inférieure à 0,2; "+" pour OD = 0,2 à 0,4; "++" pour OD = 0,4 à 0,8 et "+++" pour OD = 0,8 à 2,0.

Sequence: XCGYFPDWQNYTPGPGVRYPLTFGWCYKLVPVEPDKVEEANKGENTSLL HPVZ [PF15, protéine F HIV-1, séquence 118-167]
- nombre de sérums anti-nef positifs ayant réagi (ELISA): 4
- intensité de l'immunoréactivité (OD), Serum 1: - (pour une densité optique (OD) inférieure à 0,2)
- intensité de l'immunoréactivité (OD), Serum 2: - (pour une densité optique (OD) inférieure à 0,2)
- intensité de l'immunoréactivité (OD), Serum 3: - (pour une densité optique (OD) inférieure à 0,2)
- intensité de l'immunoréactivité (OD), Serum 4: - (pour une densité optique (OD) inférieure à 0,2)
- intensité de l'immunoréactivité (OD), Serum 5: + (pour OD = 0,2 à 0,4)
- intensité de l'immunoréactivité (OD), Serum 6: + (pour OD = 0,2 à 0,4)
- intensité de l'immunoréactivité (OD), Serum 7: - (pour une densité optique (OD) inférieure à 0,2)
- intensité de l'immunoréactivité (OD), Serum 8: - (pour une densité optique (OD) inférieure à 0,2)
- intensité de l'immunoréactivité (OD), Serum 9: - (pour une densité optique (OD) inférieure à 0,2)
- intensité de l'immunoréactivité (OD), Serum 10: - (pour une densité optique (OD) inférieure à 0,2)
- intensité de l'immunoréactivité (OD), Serum 11: - (pour une densité optique (OD) inférieure à 0,2)
- intensité de l'immunoréactivité (OD), Serum 12: - (pour une densité optique (OD) inférieure à 0,2)
- intensité de l'immunoréactivité (OD), Serum 13: - (pour une densité optique (OD) inférieure à 0,2)
- intensité de l'immunoréactivité (OD), Serum 14: - (pour une densité optique (OD) inférieure à 0,2)
- intensité de l'immunoréactivité (OD), Serum 15: - (pour une densité optique (OD) inférieure à 0,2)
- intensité de l'immunoréactivité (OD), Serum 16: - (pour une densité optique (OD) inférieure à 0,2)
- intensité de l'immunoréactivité (OD), Serum 17: - (pour une densité optique (OD) inférieure à 0,2)
- intensité de l'immunoréactivité (OD), Serum 18: - (pour une densité optique (OD) inférieure à 0,2)
- intensité de l'immunoréactivité (OD), Serum 19: ++ (pour OD = 0,4 à 0,8)
- intensité de l'immunoréactivité (OD), Serum 20: - (pour une densité optique (OD) inférieure à 0,2)
- intensité de l'immunoréactivité (OD), Serum 21: - (pour une densité optique (OD) inférieure à 0,2)
- intensité de l'immunoréactivité (OD), Serum 22: ++ (pour OD = 0,4 à 0,8)
- intensité de l'immunoréactivité (OD), Serum 23: - (pour une densité optique (OD) inférieure à 0,2)
- intensité de l'immunoréactivité (OD), Serum 24: - (pour une densité optique (OD) inférieure à 0,2)
- intensité de l'immunoréactivité (OD), Serum 25: - (pour une densité optique (OD) inférieure à 0,2)
- intensité de l'immunoréactivité (OD), Serum 26: - (pour une densité optique (OD) inférieure à 0,2)
- intensité de l'immunoréactivité (OD), Serum 27: - (pour une densité optique (OD) inférieure à 0,2)
- intensité de l'immunoréactivité (OD), Serum 28: - (pour une densité optique (OD) inférieure à 0,2)
- intensité de l'immunoréactivité (OD), Serum 29: - (pour une densité optique (OD) inférieure à 0,2)
- intensité de l'immunoréactivité (OD), Serum 30: - (pour une densité optique (OD) inférieure à 0,2)
- intensité de l'immunoréactivité (OD), Serum 31: - (pour une densité optique (OD) inférieure à 0,2)
- intensité de l'immunoréactivité (OD), Serum 32: - (pour une densité optique (OD) inférieure à 0,2)
- intensité de l'immunoréactivité (OD), Serum 33: - (pour une densité optique (OD) inférieure à 0,2)

Sequence: XCKGGLEGLIHSQRRQDILDLWIYHTQGYFPDZ [PF18]
- part des sérums anti-nef positifs avec immunoréactivité significative (ELISA, 31 anti-nef positive sera): 1/3
- nombre de sérums anti-nef positifs ayant réagi (ELISA): 10
- intensité de l'immunoréactivité (OD), Serum 1: - (pour une densité optique (OD) inférieure à 0,2)
- intensité de l'immunoréactivité (OD), Serum 2: - (pour une densité optique (OD) inférieure à 0,2)
- intensité de l'immunoréactivité (OD), Serum 3: - (pour une densité optique (OD) inférieure à 0,2)
- intensité de l'immunoréactivité (OD), Serum 4: - (pour une densité optique (OD) inférieure à 0,2)
- intensité de l'immunoréactivité (OD), Serum 5: + (pour OD = 0,2 à 0,4)
- intensité de l'immunoréactivité (OD), Serum 6: + (pour OD = 0,2 à 0,4)
- intensité de l'immunoréactivité (OD), Serum 7: - (pour une densité optique (OD) inférieure à 0,2)
- intensité de l'immunoréactivité (OD), Serum 8: - (pour une densité optique (OD) inférieure à 0,2)
- intensité de l'immunoréactivité (OD), Serum 9: - (pour une densité optique (OD) inférieure à 0,2)
- intensité de l'immunoréactivité (OD), Serum 10: - (pour une densité optique (OD) inférieure à 0,2)
- intensité de l'immunoréactivité (OD), Serum 11: - (pour une densité optique (OD) inférieure à 0,2)
- intensité de l'immunoréactivité (OD), Serum 12: - (pour une densité optique (OD) inférieure à 0,2)
- intensité de l'immunoréactivité (OD), Serum 13: - (pour une densité optique (OD) inférieure à 0,2)
- intensité de l'immunoréactivité (OD), Serum 14: - (pour une densité optique (OD) inférieure à 0,2)
- intensité de l'immunoréactivité (OD), Serum 15: - (pour une densité optique (OD) inférieure à 0,2)
- intensité de l'immunoréactivité (OD), Serum 16: - (pour une densité optique (OD) inférieure à 0,2)
- intensité de l'immunoréactivité (OD), Serum 17: - (pour une densité optique (OD) inférieure à 0,2)
- intensité de l'immunoréactivité (OD), Serum 18: ++ (pour OD = 0,4 à 0,8)
- intensité de l'immunoréactivité (OD), Serum 19: + (pour OD = 0,2 à 0,4)
- intensité de l'immunoréactivité (OD), Serum 20: + (pour OD = 0,2 à 0,4)
- intensité de l'immunoréactivité (OD), Serum 21: +++ (pour OD = 0,8 à 2,0)
- intensité de l'immunoréactivité (OD), Serum 22: +++ (pour OD = 0,8 à 2,0)
- intensité de l'immunoréactivité (OD), Serum 23: - (pour une densité optique (OD) inférieure à 0,2)
- intensité de l'immunoréactivité (OD), Serum 24: ++ (pour OD = 0,4 à 0,8)
- intensité de l'immunoréactivité (OD), Serum 25: + (pour OD = 0,2 à 0,4)
- intensité de l'immunoréactivité (OD), Serum 26: - (pour une densité optique (OD) inférieure à 0,2)
- intensité de l'immunoréactivité (OD), Serum 27: - (pour une densité optique (OD) inférieure à 0,2)
- intensité de l'immunoréactivité (OD), Serum 28: - (pour une densité optique (OD) inférieure à 0,2)
- intensité de l'immunoréactivité (OD), Serum 29: - (pour une densité optique (OD) inférieure à 0,2)
- intensité de l'immunoréactivité (OD), Serum 30: +++ (pour OD = 0,8 à 2,0)
- intensité de l'immunoréactivité (OD), Serum 31: - (pour une densité optique (OD) inférieure à 0,2)
- intensité de l'immunoréactivité (OD), Serum 32: - (pour une densité optique (OD) inférieure à 0,2)
- intensité de l'immunoréactivité (OD), Serum 33: - (pour une densité optique (OD) inférieure à 0,2)
